Measurements taken from US10512635B2, “Uses of benzimidazole derivative for nocturnal acid breakthrough” (CJ HEALTHCARE CORPORATION, priority 2015, dated 2019).
“And” between values parts separate entries of the source, which are not always exact repeats. Equal values may be shown once.

Tested on: gastric pH
Assay: Clinical trial: 24 h gastric pH monitoring after single night-time oral dose
Format: in vivo, human (healthy male volunteers)
Conditions: for % inhibition of IA / % inhibition of Time pH < 4: post-dose vs baseline; for % inhibition of IA / % inhibition of Time pH < 4 / IA (integrated acidity) / Median pH / Time pH > 4 (%) / Time pH > 6 (%): mean N=12; for IA (integrated acidity) / Median pH / Time pH > 4 (%) / Time pH > 6 (%): post-dose
Experimental: In order to evaluate the nocturnal acid breakthrough inhibiting effect of the compound of Chemical Formula 1 according to the present disclosure, clinical trials were designed by Randomized, Open-label, Single-dose, Balanced incomplete block crossover. A total of 24 trial subjects were enrolled for 12 sequences, with two trial subjects assigned per a sequence. All the trial subjects have completed the planned clinical trial schedule (FIG. 1 and Table 1).
Trial drugs were administered between P.M. 08:30 and P.M 10:30 together with 200 mL of water in a state where water intake was restricted 1 hour before the administration of the trial drugs. Investigator has instructed the trial subjects to take the trial drugs, and has observed the oral cavities of the trial subjects whether all the trial drugs were well taken. The trial subjects were restricted not to lie down for 3 hours after the administration of the trial drugs, but were not restricted when they must lie down or be semi-reclined during a clinical test procedure (for example, electrocardiogram examination). The trial subjects were to take a proper posture if any abnormal reaction occurs at any point.
The trial subjects were allowed to take a small amount of water (150 mL or less) in order to insert a pH sensor easily. The intake of drinking water and food was prohibited for 4 hours after the insertion of a pH sensor, and, particularly, the intake of water was restricted for 4 hours after the administration of the trial drugs (On the day before the administration (−1 D), for 4 hours after estimated drug administration time). After the trial subjects woke up next day, a small amount of water (about 50 mL) was provided to the trial subjects at 2 hour intervals during 12 to 24 hours after the administration of the trial drugs (On the day before the administration (−1 D), during 12 to 24 hours after estimated drug administration time), and the intake of water was not restricted during meal time. Meanwhile, standard meal was provided in the form of liquid meal or semi-liquid, and dinner was finished at least 3 hours before drug administration time (On the day before the administration (−1 D), estimated drug administration time). After dinner, an empty stomach state was maintained until breakfast next morning.
Specifically, for the analysis of […] parameters, the changes of average 15-min median gastric pH over time were monitored. The main […] parameters set forth above were calculated using the data of total 24 persons obtained by the monitoring of gastric pH. The time function of […] parameters was schematically was illustrated to calculate the […] parameters, and these […] parameters were summarized using descriptive statistics (arithmetic mean (mean), standard deviation (SD), coefficient of variation (CV (%)), sample size (N), minimum value (min), maximum value (max), and median value (median)).
Meanwhile, the monitoring of gastric pH was carried out as fellows. • Period 1: for each examination period, 24 h for −1 D (before administration), 24 h for each of 1 D and 7 D (after administration) • Period 2: 24 h for 1 D (after administration)

[1] = Compound I 50 mg (Example 1), 24 hours
[2] = Compound I 50 mg (Example 1), day-time (12-24 hours)
[3] = Compound I 50 mg (Example 1), night-time (0-12 hours)
[4] = Compound I 100 mg (Example 2), 24 hours
[5] = Compound I 100 mg (Example 2), day-time (12-24 hours)
[6] = Compound I 100 mg (Example 2), night-time (0-12 hours)
[7] = Compound I 200 mg (two formulations of Example 2), 24 hours
[8] = Compound I 200 mg (two formulations of Example 2), day-time (12-24 hours)
[9] = Compound I 200 mg (two formulations of Example 2), night-time (0-12 hours)
[10] = dexlansoprazole 60 mg (Comparative Example), 24 hours
[11] = dexlansoprazole 60 mg (Comparative Example), day-time (12-24 hours)
[12] = dexlansoprazole 60 mg (Comparative Example), night-time (0-12 hours)

## Cc1nc2c(OC3CCOc4cc(F)cc(F)c43)cc(C(=O)N(C)C)cc2[nH]1 (centres unmarked) [Compound I, 4-(5,7-difluorochroman-4-yloxy)-N,N,2-trimethyl-1H-benzo[d]imidazole-6-carboxamide]
[1]
  % inhibition of IA: 78.18%
  % inhibition of Time pH < 4: 51.35%
  IA (integrated acidity): 355.02 mmol·h/L
  Median pH: 4.57
  Time pH > 4 (%): 58.55%
  Time pH > 6 (%): 25.97%
[2]
  % inhibition of IA: 62.64%
  % inhibition of Time pH < 4: 39.65%
  IA (integrated acidity): 184.29 mmol·h/L
  Median pH: 4.08
  Time pH > 4 (%): 52.06%
  Time pH > 6 (%): 21.56%
[3]
  % inhibition of IA: 83.98%
  % inhibition of Time pH < 4: 61.41%
  IA (integrated acidity): 170.73 mmol·h/L
  Median pH: 4.98
  Time pH > 4 (%): 65.11%
  Time pH > 6 (%): 30.41%
[4]
  % inhibition of IA: 88.78%
  % inhibition of Time pH < 4: 66.22%
  IA (integrated acidity): 229.60 mmol·h/L
  Median pH: 5.10
  Time pH > 4 (%): 70.07%
  Time pH > 6 (%): 31.91%
[5]
  % inhibition of IA: 90.74%
  % inhibition of Time pH < 4: 71.47%
  IA (integrated acidity): 67.72 mmol·h/L
  Median pH: 5.10
  Time pH > 4 (%): 74.57%
  Time pH > 6 (%): 30.10%
[6]
  % inhibition of IA: 88.68%
  % inhibition of Time pH < 4: 62.53%
  IA (integrated acidity): 161.88 mmol·h/L
  Median pH: 5.01
  Time pH > 4 (%): 65.61%
  Time pH > 6 (%): 33.85%
[7]
  % inhibition of IA: 93.45%
  % inhibition of Time pH < 4: 78.87%
  IA (integrated acidity): 141.62 mmol·h/L
  Median pH: 5.90
  Time pH > 4 (%): 81.73%
  Time pH > 6 (%): 48.44%
[8]
  % inhibition of IA: 97.41%
  % inhibition of Time pH < 4: 82.48%
  IA (integrated acidity): 25.51 mmol·h/L
  Median pH: 5.62
  Time pH > 4 (%): 85.34%
  Time pH > 6 (%): 43.29%
[9]
  % inhibition of IA: 91.17%
  % inhibition of Time pH < 4: 76.00%
  IA (integrated acidity): 116.11 mmol·h/L
  Median pH: 6.00
  Time pH > 4 (%): 78.15%
  Time pH > 6 (%): 53.63%
Compound I 200 mg (two formulations of Example 2), night-time (0-12 hours), listed as compound of Chemical Formula 1
  Time pH > 4 (%): 73.15%
All dose groups (50 mg, 100 mg, and 200 mg), administered at night-time
  time after administration until average gastric pH reached 4 or higher: ≤ 2 hours

## Cc1c(OCC(F)(F)F)ccnc1C[S@@+]([O-])c1nc2ccccc2[nH]1 [dexlansoprazole, reference compound]
[10]
  % inhibition of IA: 64.66%
  % inhibition of Time pH < 4: 53.96%
  IA (integrated acidity): 719.54 mmol·h/L
  Median pH: 4.98
  Time pH > 4 (%): 60.55%
  Time pH > 6 (%): 25.85%
[11]
  % inhibition of IA: 97.01%
  % inhibition of Time pH < 4: 79.80%
  IA (integrated acidity): 22.89 mmol·h/L
  Median pH: 5.56
  Time pH > 4 (%): 83.05% and 83.06%
  Time pH > 6 (%): 33.71%
[12]
  % inhibition of IA: 44.06%
  % inhibition of Time pH < 4: 29.98%
  IA (integrated acidity): 696.55 mmol·h/L
  Median pH: 2.55
  Time pH > 4 (%): 37.78%
  Time pH > 6 (%): 17.76%
